From PubChem BioAssay AID256 (DTP/NCI, 2004)
Values joined by “and” are separate entries in the source; they are usually repeats but may differ in a detail not shown here. Identical values can stand only once. Toxic doses and inconclusive results are not listed.

Tested on: CD2F1 mice, L1210 leukemia ip, survival T/C
Assay: NCI In Vivo Anticancer Drug Screen. Data for tumor model L1210 Leukemia (intraperitoneal) in CD2F1 (CDF1) mice
Conditions: higher = longer survival
In short: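 Each value reflects a quotient of treated over vehicle control outcomes in mice with a transplanted tumor.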

O=NN(CCCl)C(=O)NCCCl
T/C (endpoint: mean survival time, dose: 2.0 mg/kg/injection, schedule: Q01DX009 (ip), vehicle: other): 177 % of control and 293 % of control
T/C (endpoint: mean survival time, dose: 3.75 mg/kg/injection, schedule: Q01DX001 (ip), vehicle: distilled water + alcohol): 115 % of control
T/C (endpoint: mean survival time, dose: 3.75 mg/kg/injection, schedule: Q01DX001 (ip), vehicle: saline + alcohol): 114 % of control
T/C (endpoint: mean survival time, dose: 3.8 mg/kg/injection, schedule: Q01DX001 (ip), vehicle: Klucel (hydroxypropylcellulose) (HPC)): 150 % of control
T/C (endpoint: mean survival time, dose: 4.0 mg/kg/injection, schedule: Q01DX001 (ip), vehicle: saline + alcohol): 113 % of control and 115 % of control
T/C (endpoint: mean survival time, dose: 4.0 mg/kg/injection, schedule: Q01DX009 (ip), vehicle: other): 201 % of control and 255 % of control
T/C (endpoint: mean survival time, dose: 4.0 mg/kg/injection, schedule: Q04DX003 (ip), vehicle: saline + alcohol): 189 % of control
T/C (endpoint: mean survival time, dose: 5.0 mg/kg/injection, schedule: Q01DX001 (ip), vehicle: saline): 113 % of control
T/C (endpoint: mean survival time, dose: 6.25 mg/kg/injection, schedule: Q01DX001 (ip), vehicle: saline + alcohol): 119 % of control and 120 % of control
T/C (endpoint: mean survival time, dose: 7.5 mg/kg/injection, schedule: Q01DX001 (ip), vehicle: Klucel (hydroxypropylcellulose) (HPC)): 164 % of control
T/C (endpoint: mean survival time, dose: 7.5 mg/kg/injection, schedule: Q01DX001 (ip), vehicle: distilled water + alcohol): 123 % of control
T/C (endpoint: mean survival time, dose: 8.0 mg/kg/injection, schedule: Q01DX009 (ip), vehicle: other): 183 % of control
T/C (endpoint: mean survival time, dose: 8.0 mg/kg/injection, schedule: Q04DX003 (ip), vehicle: saline + alcohol): 230 % of control
T/C (endpoint: mean survival time, dose: 9.4 mg/kg/injection, schedule: Q01DX001 (ip), vehicle: saline + alcohol): 156 % of control and 197 % of control
T/C (endpoint: mean survival time, dose: 10.0 mg/kg/injection, schedule: Q01DX001 (ip), vehicle: DMSO): 158 % of control
T/C (endpoint: mean survival time, dose: 12.5 mg/kg/injection, schedule: Q01DX001 (ip), vehicle: saline + alcohol): 152 % of control and 188 % of control and 212 % of control
T/C (endpoint: mean survival time, dose: 14.0 mg/kg/injection, schedule: Q01DX001 (ip), vehicle: saline): 171 % of control
T/C (endpoint: mean survival time, dose: 14.0 mg/kg/injection, schedule: Q07DX003 (ip), vehicle: saline + alcohol): 330 % of control
T/C (endpoint: mean survival time, dose: 14.0 mg/kg/injection, schedule: Q11HX001 (ip), vehicle: saline): 171 % of control
T/C (endpoint: mean survival time, dose: 14.22 mg/kg/injection, schedule: Q01DX001 (ip), vehicle: saline + alcohol): 172 % of control
T/C (endpoint: mean survival time, dose: 15.0 mg/kg/injection, schedule: Q01DX001 (ip), vehicle: Klucel (hydroxypropylcellulose) (HPC)): 332 % of control
T/C (endpoint: mean survival time, dose: 15.0 mg/kg/injection, schedule: Q01DX001 (ip), vehicle: saline): 172 % of control and 248 % of control
T/C (endpoint: mean survival time, dose: 16.0 mg/kg/injection, schedule: Q01DX001 (ip), vehicle: other): 150 % of control
T/C (endpoint: mean survival time, dose: 16.0 mg/kg/injection, schedule: Q04DX003 (ip), vehicle: saline + alcohol): 273 % of control
T/C (endpoint: mean survival time, dose: 18.8 mg/kg/injection, schedule: Q01DX001 (ip), vehicle: saline + alcohol): 319 % of control
T/C (endpoint: mean survival time, dose: 20.0 mg/kg/injection, schedule: Q01DX001 (ip), vehicle: DMSO): 270 % of control
T/C (endpoint: mean survival time, dose: 20.0 mg/kg/injection, schedule: Q01DX001 (ip), vehicle: Klucel (hydroxypropylcellulose) (HPC)): 300 % of control
T/C (endpoint: mean survival time, dose: 20.0 mg/kg/injection, schedule: Q01DX001 (ip), vehicle: other): 169 % of control
T/C (endpoint: mean survival time, dose: 20.0 mg/kg/injection, schedule: Q11HX001 (ip), vehicle: saline): 198 % of control
T/C (endpoint: mean survival time, dose: 21.3 mg/kg/injection, schedule: Q01DX001 (ip), vehicle: saline + alcohol): 248 % of control
T/C (endpoint: mean survival time, dose: 25.0 mg/kg/injection, schedule: Q01DX001 (ip), vehicle: saline + alcohol): 335 % of control
T/C (endpoint: mean survival time, dose: 30.0 mg/kg/injection, schedule: Q01DX001 (ip), vehicle: distilled water + alcohol): 196 % of control
T/C (endpoint: mean survival time, dose: 30.0 mg/kg/injection, schedule: Q01DX001 (ip), vehicle: saline): 232 % of control
T/C (endpoint: mean survival time, dose: 30.0 mg/kg/injection, schedule: Q11HX001 (ip), vehicle: saline): 232 % of control
T/C (endpoint: mean survival time, dose: 32.0 mg/kg/injection, schedule: Q01DX001 (ip), vehicle: other): 246 % of control
T/C (endpoint: mean survival time, dose: 32.0 mg/kg/injection, schedule: Q01DX001 (ip), vehicle: saline): 287 % of control
T/C (endpoint: mean survival time, dose: 33.0 mg/kg/injection, schedule: Q07DX003 (ip), vehicle: saline + alcohol): 323 % of control
T/C (endpoint: mean survival time, dose: 40.0 mg/kg/injection, schedule: Q01DX001 (ip), vehicle: Klucel (hydroxypropylcellulose) (HPC)): 311 % of control
T/C (endpoint: mean survival time, dose: 40.0 mg/kg/injection, schedule: Q01DX001 (ip), vehicle: other): 311 % of control
T/C (endpoint: mean survival time, dose: 45.0 mg/kg/injection, schedule: Q01DX001 (ip), vehicle: saline): 179 % of control
T/C (endpoint: mean survival time, dose: 45.0 mg/kg/injection, schedule: Q11HX001 (ip), vehicle: saline): 180 % of control
T/C (endpoint: mean survival time, dose: 50.0 mg/kg/injection, schedule: Q01DX001 (ip), vehicle: saline + alcohol): 291 % of control
T/C (endpoint: mean survival time, dose: 56.25 mg/kg/injection, schedule: Q01DX001 (ip), vehicle: saline + alcohol): 252 % of control
T/C (endpoint: mean survival time, dose: 60.0 mg/kg/injection, schedule: Q01DX001 (ip), vehicle: distilled water + alcohol): 222 % of control
T/C (endpoint: mean survival time, dose: 80.0 mg/kg/injection, schedule: Q01DX001 (ip), vehicle: saline + alcohol): 168 % of control
T/C (endpoint: median survival time, dose: 0.9 mg/kg/injection, schedule: Q01DX009 (ip), vehicle: saline + alcohol): 116 % of control and 122 % of control
T/C (endpoint: median survival time, dose: 1.75 mg/kg/injection, schedule: Q01DX009 (ip), vehicle: saline + alcohol): 156 % of control
T/C (endpoint: median survival time, dose: 1.8 mg/kg/injection, schedule: Q01DX009 (ip), vehicle: saline + alcohol): 169 % of control
T/C (endpoint: median survival time, dose: 3.0 mg/kg/injection, schedule: Q01DX009 (ip), vehicle: saline + alcohol): 172 % of control
T/C (endpoint: median survival time, dose: 3.5 mg/kg/injection, schedule: Q01DX009 (ip), vehicle: saline + alcohol): 182 % of control and 241 % of control and 246 % of control
T/C (endpoint: median survival time, dose: 5.0 mg/kg/injection, schedule: Q04DX003 (ip), vehicle: saline + alcohol): 152 % of control
T/C (endpoint: median survival time, dose: 6.0 mg/kg/injection, schedule: Q01DX009 (ip), vehicle: saline + alcohol): 256 % of control
T/C (endpoint: median survival time, dose: 7.0 mg/kg/injection, schedule: Q01DX009 (ip), vehicle: saline + alcohol): 218 % of control and 259 % of control
T/C (endpoint: median survival time, dose: 8.0 mg/kg/injection, schedule: Q01DX001 (ip), vehicle: saline + alcohol): 153 % of control
T/C (endpoint: median survival time, dose: 10.0 mg/kg/injection, schedule: Q01DX001 (ip), vehicle: Klucel (hydroxypropylcellulose) (HPC)): 171 % of control and 197 % of control
T/C (endpoint: median survival time, dose: 10.0 mg/kg/injection, schedule: Q01DX001 (ip), vehicle: saline + alcohol): 156 % of control and 178 % of control
T/C (endpoint: median survival time, dose: 10.0 mg/kg/injection, schedule: Q01DX009 (ip), vehicle: saline): 176 % of control
T/C (endpoint: median survival time, dose: 10.0 mg/kg/injection, schedule: Q03DX003 (ip), vehicle: DMSO): 294 % of control
T/C (endpoint: median survival time, dose: 10.0 mg/kg/injection, schedule: Q04DX003 (ip), vehicle: saline + alcohol): 188 % of control
T/C (endpoint: median survival time, dose: 11.5 mg/kg/injection, schedule: Q01DX001 (ip), vehicle: saline + alcohol): 165 % of control
T/C (endpoint: median survival time, dose: 12.0 mg/kg/injection, schedule: Q01DX009 (ip), vehicle: saline + alcohol): 168 % of control
T/C (endpoint: median survival time, dose: 14.0 mg/kg/injection, schedule: Q01DX009 (ip), vehicle: saline + alcohol): 158 % of control and 162 % of control and 185 % of control
T/C (endpoint: median survival time, dose: 14.0 mg/kg/injection, schedule: Q07DX003 (ip), vehicle: saline + alcohol): 273 % of control
T/C (endpoint: median survival time, dose: 14.4 mg/kg/injection, schedule: Q01DX001 (ip), vehicle: saline + alcohol): 152 % of control and 157 % of control
T/C (endpoint: median survival time, dose: 15.0 mg/kg/injection, schedule: Q01DX009 (ip), vehicle: saline): 164 % of control
T/C (endpoint: median survival time, dose: 16.0 mg/kg/injection, schedule: Q01DX001 (ip), vehicle: saline + alcohol): 255 % of control
T/C (endpoint: median survival time, dose: 19.2 mg/kg/injection, schedule: Q01DX001 (ip), vehicle: saline + alcohol): 192 % of control
T/C (endpoint: median survival time, dose: 20.0 mg/kg/injection, schedule: Q01DX001 (ip), vehicle: Klucel (hydroxypropylcellulose) (HPC)): 226 % of control and 234 % of control
T/C (endpoint: median survival time, dose: 24.0 mg/kg/injection, schedule: Q01DX001 (ip), vehicle: saline + alcohol): 152 % of control and 186 % of control
T/C (endpoint: median survival time, dose: 24.0 mg/kg/injection, schedule: Q01DX009 (ip), vehicle: saline + alcohol): 124 % of control
T/C (endpoint: median survival time, dose: 32.0 mg/kg/injection, schedule: Q01DX001 (ip), vehicle: saline + alcohol): 186 % of control
T/C (endpoint: median survival time, dose: 40.0 mg/kg/injection, schedule: Q01DX001 (ip), vehicle: Klucel (hydroxypropylcellulose) (HPC)): 343 % of control
T/C (endpoint: median survival time, dose: 40.0 mg/kg/injection, schedule: Q04DX003 (ip), vehicle: saline + alcohol): 164 % of control
T/C (endpoint: median survival time, dose: 66.7 mg/kg/injection, schedule: Q01DX001 (ip), vehicle: saline + alcohol): 179 % of control and 184 % of control
T/C (endpoint: median survival time, dose: 80.0 mg/kg/injection, schedule: Q01DX001 (ip), vehicle: Klucel (hydroxypropylcellulose) (HPC)): 117 % of control
T/C (endpoint: median survival time, dose: 80.0 mg/kg/injection, schedule: Q01DX001 (ip), vehicle: saline): 123 % of control
T/C (endpoint: median survival time, dose: 160.0 mg/kg/injection, schedule: Q01DX001 (ip), vehicle: Klucel (hydroxypropylcellulose) (HPC)): 168 % of control

CS(=O)(=O)N1CCCCC1
T/C (endpoint: mean survival time, dose: 75.0 mg/kg/injection, schedule: Q01DX001 (ip), vehicle: saline): 100 % of control

O=C(O)CNCc1ccc2c(c1)OCCO2
T/C (endpoint: mean survival time, dose: 100.0 mg/kg/injection, schedule: Q01DX009 (ip), vehicle: Klucel (hydroxypropylcellulose) (HPC)): 103 % of control
T/C (endpoint: mean survival time, dose: 200.0 mg/kg/injection, schedule: Q01DX009 (ip), vehicle: Klucel (hydroxypropylcellulose) (HPC)): 98 % of control
T/C (endpoint: mean survival time, dose: 400.0 mg/kg/injection, schedule: Q01DX009 (ip), vehicle: Klucel (hydroxypropylcellulose) (HPC)): 95 % of control
